What was measured:
[1] = test system: miR-17; test: microRNA polysome shift assay (miPSA), kidney target engagement; assay type: in vivo, mouse; set-up: miPSA Score Wild Type Mice / miPSA Score PKD Mice / miPSA displacement score (mean): scale not given here; conditions: for miPSA Kidney AUC (8 hours to 7 days) / Potency Kidney D7: wild-type mice, single s.c. dose 30 mg/kg; for Potency Kidney D7: day 7
Experimental: (§1) In vivo potency was evaluated using the microRNA polysome shift assay (miPSA). This assay was used to determine the extent to which compounds directly engage the miR-17 target in the kidney in normal and PKD mice. The miPSA relies on the principle that active miRNAs bind to their mRNA targets in translationally active high molecular weight (HMW) polysomes, whereas the inhibited miRNAs reside in the low MW (LMW) polysomes. Treatment with anti-miR results in a shift of the microRNA from HMW polysomes to LMW polysomes. Thus, the miPSA provides a direct measurement of microRNA target engagement by a complementary anti-miR (Androsavich et al., Nucleic Acids Research, 2015, 44: e13).
The miPSA was used to assess the potency of each compound, measured by the displacement score, in wild type and JCK mice. Tissue accumulation of anti-miR-17 compound was measured by extraction of compound using liquid-liquid extraction (LLE) and/or solid-phase extraction (SPE), followed by analysis of the identity and concentration of compound using ion-pairing-reversed-phase high performance liquid chromatography coupled with time-of-flight mass spectrometry (IP—RP-HPLC-TOF).
Wild type mice were administered a single dose of 3 mg/kg for the miPSA analysis, and a single dose of 30 mg/kg for the tissue accumulation analysis. JCK mice were administered a single dose of 30 mg/kg for both the miPSA and tissue accumulation analyses. Kidney tissue was collected seven days following the administration of anti-miR-17 compound. […] A higher kidney-to-liver ratio is generally preferred for a disease where the primary site of action is the kidney.
as §1, with “The” for “In vivo potency was evaluated using the”, “(miPSA),” for “(miPSA). This assay”, “identify” for “determine the extent to which”, “compounds that” for “compounds”, “engage” for “engage the”, “miR-17” for “miR-17 target”
For this experiment, the PKD model selected was the JCK model, a mouse model of slowly progressing renal cystic disease associated with the same gene that causes human nephronophthisis type 9. Renal cysts in this mouse develop in multiple regions of the nephron.
C57BL6 mice were treated with a single, subcutaneous dose of 0.3, 3, and 30 mg/kg of RG4326 or tool anti-miR-17 (described in Example 1). JCK mice were treated with a single, subcutaneous dose of 3, 30, and 100 mg/kg of RG4326 or tool anti-miR-17. PBS treatment was used as an additional control. At seven days post-treatment, mice were sacrificed, and kidney tissue was isolated for the miPSA. […] The displacement scores following treatment with RG4326 were greater than the displacement scores following treatment with the tool anti-miR-17 compound. The data for wild-type mice and JCK mice are also shown in FIG. 3A and FIG. 3B, respectively.
Pharmacokinetic behavior was assessed by administering a single subcutaneous 30 mg/kg dose of RG4326 or tool anti-miR-17 compound to wild-type mice. At one hour, four hours, eight hours, one day, seven days, 14 days, 28 days and 56 days following the single injection, mice were sacrificed and the mean concentration of anti-miR compound in kidney and liver tissue was measured (ug/g) as described above. The area-under-curve (AUC) was calculated for kidney and liver tissue using the formula ug*h/g, where ug is the amount of oligonucleotide in the tissue, h is the timepoint of tissue collection in hours, and g is the weight of the tissue. The ratio of kidney AUC to liver AUC was determined. Kidney tissue was also processed to the miPSA, to determine target engagement for each compound in this study. […]

[2] = Pharmacokinetic profile after single 30 mg/kg subcutaneous dose in wild-type mice; assay type: in vivo, mouse; conditions: single s.c. dose 30 mg/kg
Experimental: A full pharmacokinetic profile for selected compounds that have passed multiple screening criteria was obtained in C57BL6 mice. In one study, mice are administered a single subcutaneous injection of anti-miR-17 compound at 30 mg/kg. In another study, mice are administered three subcutaneous injections of anti-miR-17 compound at 39 mg/kg, over a two-month period. In each study, liver and kidney samples are collected at 1 hour, 4 hours, 8 hours, 1 day, 4 days, 7 days, 14 days, 28 days, and 56 days following injections.
Pharmacokinetic behavior was assessed by administering a single subcutaneous 30 mg/kg dose of RG4326 or tool anti-miR-17 compound to wild-type mice. At one hour, four hours, eight hours, one day, seven days, 14 days, 28 days and 56 days following the single injection, mice were sacrificed and the mean concentration of anti-miR compound in kidney and liver tissue was measured (ug/g) as described above. The area-under-curve (AUC) was calculated for kidney and liver tissue using the formula ug*h/g, where ug is the amount of oligonucleotide in the tissue, h is the timepoint of tissue collection in hours, and g is the weight of the tissue. The ratio of kidney AUC to liver AUC was determined. Kidney tissue was also processed to the miPSA, to determine target engagement for each compound in this study. PSA AUC was calculated using the formula Log2FC*h, where Log2FC is the displacement value, h is the timepoint of tissue collection in hours. Potency in the kidney at day 7 was calculated using the formula […] where Log2FC is the displacement value as determined by the miPSA, g is the weight of the kidney tissue, and ug is the amount of anti-miR in the kidney tissue at day seven.

[3] = test system: miR-17 targets; test: miR-17 PD Signature Score in IMCD3 cells (18 genes targeted by miR-17); assay type: cell-based, mouse; conditions: 24-hour transfection, relative to mock-transfection
Experimental: To test the ability of RG4326 to inhibit miR-17 regulation of endogenous targets, miR-17 target gene de-repression was assessed in vitro in several kidney cell types from normal and PKD mouse kidneys. Mouse kidney collecting duct cells (IMCD3) were treated with 0.3 nM, 1.2 nM, 4.7 nM, 18.8 nM, 75 nM, and 300 nM of RG4326 or a control oligonucleotide, RG5124. Additional control groups included untreated cells and mock-transfected cells (cell treated with transfection reagent only). After a 24-hour transfection period, cells were collected and RNA was extracted. The mRNA levels of 18 genes targeted by miR-17 were measured, and averaged to provide a pharmacodynamic signature score (PD Signature Score), represented as Log2 fold-change (Log2FC) relative to mock-transfection.

[4] = JCK mice, single subcutaneous 3 mg/kg, kidney, seven days
[5] = JCK mice, single subcutaneous 30 mg/kg, kidney, seven days
[6] = JCK mice, single subcutaneous 100 mg/kg, kidney, seven days
[7] = Normal (C57BL6) mice, single subcutaneous 0.3 mg/kg, kidney, seven days
[8] = Normal (C57BL6) mice, single subcutaneous 3 mg/kg, kidney, seven days
[9] = Normal (C57BL6) mice, single subcutaneous 30 mg/kg, kidney, seven days

## 5′-CTGCACTGTAAGCACTTTG-3′ (all phosphorothioate, sugars by position and methylation of C not given here; DNA, 2'-MOE and S-cEt sugars) [Tool anti-miR-17, reference compound]
[1]; [4]
  miPSA displacement score (mean): 0.97
[1]; [5]
  miPSA displacement score (mean): 1.67
[1]; [6]
  miPSA displacement score (mean): 2.08
[1]; [7]
  miPSA displacement score (mean): 1.51
[1]; [8]
  miPSA displacement score (mean): 2.05
[1]; [9]
  miPSA displacement score (mean): 2.77
[1]
  miPSA Kidney AUC (8 hours to 7 days): 296 Log2FC * h
  Potency Kidney D7: 0.047 Log2FC * g/ug
[2]
  KAUC/LAUC Ratio: 1.0
  Kidney AUC (one hour to 56 days): 20711 µg·h/g
  Liver AUC (one hour to 56 days): 20275 µg·h/g

## COC1C(OP(=O)(S)OC[C@H]2O[C@@H](n3cnc4c(N)ncnc43)C(F)C2OP(=O)(S)OC[C@H]2O[C@@H](n3ccc(N)nc3=O)C(F)C2OP(=O)(S)OC[C@H]2O[C@@H](n3ccc(=O)[nH]c3=O)C(F)C2OP(=O)(S)OC[C@H]2O[C@@H](n3ccc(=O)[nH]c3=O)C(OC)C2OP(=O)(S)OC[C@]23O[C@@H](n4ccc(=O)[nH]c4=O)C(O[C@H]2C)C3OP(=O)(S)OC[C@]23O[C@@H](n4cnc5c(=O)[nH]c(N)nc54)C(O[C@H]2C)C3O)[C@@H](COP(=O)(S)OC2C3O[C@@H](C)[C@]2(COP(=O)(S)OC2C4O[C@@H](C)[C@]2(CO)O[C@H]4n2cnc4c(N)ncnc42)O[C@H]3n2cnc3c(=O)[nH]c(N)nc32)O[C@H]1n1ccc(N)nc1=O (stereo in doubt) [RG4326, ASGSCMAFCFUFUMUSGS]
[3]; 0.3 nM
  miR-17 PD Signature Score, Mean Log2FC: −0.075 Log2FC
[3]; 1.2 nM
  miR-17 PD Signature Score, Mean Log2FC: −0.067 Log2FC
[3]; 4.7 nM
  miR-17 PD Signature Score, Mean Log2FC: 0.027 Log2FC
[3]; 18.8 nM
  miR-17 PD Signature Score, Mean Log2FC: 0.272 Log2FC
[3]; 75 nM
  miR-17 PD Signature Score, Mean Log2FC: 0.369 Log2FC
[3]; 300 nM
  miR-17 PD Signature Score, Mean Log2FC: 0.373 Log2FC
[1]; JCK mice, single dose 30 mg/kg, kidney, seven days
  miPSA Score PKD Mice: 2.65
[1]; [4]
  miPSA displacement score (mean): 1.63
[1]; [5]
  miPSA displacement score (mean): 2.58
[1]; [6]
  miPSA displacement score (mean): 2.73
[1]; [7]
  miPSA displacement score (mean): 2.29
[1]; [8]
  miPSA displacement score (mean): 2.91
[1]; [9]
  miPSA displacement score (mean): 3.19
[1]; wild type mice, single dose 3 mg/kg, kidney, seven days
  miPSA Score Wild Type Mice: 2.63
[1]
  miPSA Kidney AUC (8 hours to 7 days): 463 Log2FC * h
  Potency Kidney D7: 0.351 Log2FC * g/ug
[2]
  KAUC/LAUC Ratio: 4.4
  Kidney AUC (one hour to 56 days): 5347 µg·h/g
  Liver AUC (one hour to 56 days): 1206 µg·h/g

## ASCSAMAFUFGFCMASCS [RG5124, reference compound]
[3]; 0.3 nM
  miR-17 PD Signature Score, Mean Log2FC: −0.083 Log2FC
[3]; 1.2 nM
  miR-17 PD Signature Score, Mean Log2FC: −0.103 Log2FC
[3]; 4.7 nM
  miR-17 PD Signature Score, Mean Log2FC: −0.097 Log2FC
[3]; 18.8 nM
  miR-17 PD Signature Score, Mean Log2FC: −0.108 Log2FC
[3]; 75 nM
  miR-17 PD Signature Score, Mean Log2FC: −0.124 Log2FC
[3]; 300 nM
  miR-17 PD Signature Score, Mean Log2FC: −0.065 Log2FC
